Here are results for 2 compounds from patent US6667337B2, “Combination therapy for cancer” (Cancer Research Technology Limited, priority 2000, dated 2003).

For data set [1], the system named is Murine mammary carcinoma MDAH-MCa-4 tumours. As to the kind of experiment: Antitumour activity (tumour growth delay, cures) against MDAH-MCa-4 tumour. The class given is in vivo, female C3H/HeN mice. Particulars: for Growth delay (days) Median: interim analysis. As for the experimental part: (§1) Murine mammary carcinoma MDAH—MCa-4 tumours were grown in female C3H/HeN mice from stocks stored in liquid nitrogen at the sixth transplant generation, and were passaged and used for experiments at the eighth transplant generation. Tumours for experiments were grown by inoculating 20 μl of cell suspension (5 mg packed cells) intramuscularly in the right gastrocenmius muscle. Animals were randomised to treatment groups, and treated with drugs when the dliameter of the tumour-bearing leg reached 10-11 mm (ca 0.6 g tumour), approximately 18 days after inoculation. […] Both compounds were administered essentially at the same time (within 1 min). Host toxicity was assessed by determination of lethality, and by measurement of body weight 4-5 days after drug treatment. The diameter of the tumour-bearing leg was measured three times weekly until values exceeded 13 mm (ca 1.4 g tumour) at which time the animals were terminated. The growth curve for each individual tumour was plotted as in FIG. 1, and the time-to-endpoint (TTE, time from treatment to endpoint) was determined for each mouse. The median and mean TTE was determined for each treatment group. The mean tumour growth delay for each group was calculated as the difference between mean TTE for treated and control groups. The statistical significance of the antitumour effects was tested using ANOVA followed by Dunnett's test to determine p values for the significance of differences between individual groups.

Data set [2] in a line: Host toxicity (lethality, body weight 4-5 days after drug treatment). The class given is in vivo, female C3H/HeN mice. As for the experimental part: as §1
Where [3] appears, read: DMXAA 80 μmol/kg alone, group 120/B.
The mark [4] stands for this setting: paclitaxel 23.7 μmol/kg alone, group 120/C.

Consider `Cc1ccc2c(=O)c3cccc(CC(=O)O)c3oc2c1C` [DMXAA, 5,6-dimethylxanthenone-4-acetic acid], for which the “Growth delay (days) Median” value in data set [1] (setting [3]) worked out at 17.9 days. Also, the “% Body weight change (d4-5) Mean” value in data set [2] (setting [3]) is reported as −6.0%.
Consider `CC(=O)O[C@H]1C(=O)[C@@]2(C)[C@H]([C@H](OC(=O)c3ccccc3)[C@]3(O)C[C@H](OC(=O)[C@H](O)[C@@H](NC(=O)c4ccccc4)c4ccccc4)C(C)=C1C3(C)C)[C@]1(OC(C)=O)CO[C@@H]1C[C@@H]2O` [Paclitaxel, paclitaxel], for which the “Growth delay (days) Median” value in data set [1] (setting [4]) is given as 3.5 days. In addition, the “antitumour activity (in words)” value in data set [1] (paclitaxel alone, up to 42 μmol/kg) is recorded as “little antitumour activity”. For the same compound, the “% Body weight change (d4-5) Mean” value in data set [2] (setting [4]) is recorded as −0.1%. The “Number of mice Deaths” value in data set [2] (paclitaxel 23.7 μmol/kg alone, group 120/C, 7 mice treated, interim analysis) is on record as 1. For the same compound, the “host toxicity (in words)” value in data set [2] (paclitaxel alone, 42 μmol/kg) was “not demonstrably toxic”.
